What was measured:
[1] = tested on: Salmonella typhimurium (TA98, TA100, TA1535 and TA1537); assay: Bacterial mutation test, Salmonella typhimurium; type: cell-based; settings: up to 5000 μg/plate; absence and presence of S-9
Experimental: (§1) These conditions included treatments at concentrations up to 5000 μg/plate (the maximum recommended concentration according to current regulatory guidelines), in the absence and in the presence of a rat liver metabolic activation system (S-9).

[2] = tested on: Escherichia coli (WP2 uvrA pKM101); assay: Bacterial mutation test, Escherichia coli; type: cell-based; settings: up to 5000 μg/plate; absence and presence of S-9
Experimental: as §1

[3] = Pharmacokinetics of 5-MeO-DMT and bufotenine after inhalation; type: in vivo, human

COc1ccc2[nH]cc(CCN(C)C)c2c1 [5-MeO-DMT]
Induction of mutation [1]: did not induce mutation | Induction of mutation [2]: did not induce mutation | Plasma concentration as % of Cmax ([3]; 10 minutes after inhalation, 6, 12, 18 mg): ≤ 10 % of Cmax | Plasma concentration as % of Cmax ([3]; 2 hours after inhalation, 6, 12, 18 mg): ≤ 1 % of Cmax | Detectability in the plasma ([3]; 3 hours after inhalation, 6, 12, 18 mg): no longer detectable | Time of maximum concentrations and pharmacological effects ([3]; inhaled): during and immediately after dosing | Accumulation upon repeated administration ([3]; repeated administration within 1 to 4 hours): No accumulation

From patent US20250205200A1, “5-METHOXY-N,N-[…][…] THE TREATMENT OF […]” (GH RESEARCH IRELAND LIMITED, priority 2022, published 2025)
